The record followed here is patent publication US20230063238A1, “IMMUNOMODULATORS” (Bristol-Myers Squibb Company, priority 2020, published 2023).

Starred links: 1 amine or outer side, 2 acyl side, 3 side chain; linkers in the order of their positions; H or OH if unused. Positions of bridges follow the written chain, without caps; N, C: chain ends. Non-standard residues stand in square brackets, D forms with d. Residues, ends and D or L forms follow the SMILES beside them. *: point of attachment. Trp(1-CH2CO2Me) = COC(=O)Cn1cc(C[C@H](N)C(=O)O)c2ccccc21; Trp(1-CH2COOH) = N[C@@H](Cc1cn(CC(=O)O)c2ccccc12)C(=O)O; Hyp = O=C(O)[C@@H]1C[C@@H](O)CN1; Methoxyoxalyl = COC(=O)C(=O)*; Oxalyl = O=C(C(=O)[*:2])[*:1]; X9 = O=C(Nc1ccc(F)cc1F)C(=O)*; NMeNle = CCCC[C@H](NC)C(=O)O; X1 = O=C(Oc1ccccc1)C(=O)*; NMeA = CN[C@@H](C)C(=O)O; Dab = NCC[C@H](N)C(=O)O; Dap = NC[C@H](N)C(=O)O

T1 sequence (Q9NZQ7 18-239): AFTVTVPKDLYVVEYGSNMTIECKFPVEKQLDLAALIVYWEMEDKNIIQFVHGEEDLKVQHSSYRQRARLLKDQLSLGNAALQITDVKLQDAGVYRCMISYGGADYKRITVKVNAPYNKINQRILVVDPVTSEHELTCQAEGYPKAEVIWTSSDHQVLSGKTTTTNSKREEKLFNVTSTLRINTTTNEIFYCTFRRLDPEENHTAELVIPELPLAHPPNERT

The assay concerns the target T1, PD-1/PD-L1 (Homo sapiens, UniProt Q9NZQ7).
T1 construct: TVMV protease site linker (C); made in house; host or cells: HEK293T cells
As to the kind of experiment: PD-1/PD-L1 Homogenous Time-Resolved Fluorescence (HTRF) binding assay. The settings on record: PD-L1-His 10 nM final, PD-1-Ig 20 nM final; inhibitors pre-incubated with PD-L1-His for 15 m. The source says: The ability of the compounds of formula (I) to bind to PD-L1 was investigated using a PD-1/PD-L1 Homogenous Time-Resolved Fluorescence (HTRF) binding assay.
Homogenous Time-Resolved Fluorescence (HTRF) Binding Assay
The interaction of PD-1 and PD-L1 can be assessed using soluble, purified preparations of the extracellular domains of the two proteins. The PD-1 and PD-L1 protein extracellular domains were expressed as fusion proteins with detection tags, for PD-1, the tag was the Fc portion of Immunoglobulin (PD-1-Ig) and for PD-L1 it was the 6 histidine motif (PD-L1-His). All binding studies were performed in an HTRF assay buffer consisting of dPBS supplemented with 0.1% […] bovine serum albumin and 0.05% (v/v) Tween-20. For the h/PD-L1-His binding assay, inhibitors were pre-incubated with PD-L1-His (10 nM final) for 15 m in 4 μl of assay buffer, followed by addition of PD-1-Ig (20 nM final) in 1 μl of assay buffer and further incubation for 15m. HTRF detection was achieved using europium crypate-labeled anti-Ig (1 nM final) and allophycocyanin (APC) labeled anti-His (20 nM final). Antibodies were diluted in HTRF detection buffer and 5 μl was dispensed on top of the binding reaction. The reaction mixture was allowed to equilibrate for 30 minutes and the resulting signal (665 nm/620 nm ratio) was obtained using an EnVision fluorometer. Additional binding assays were established between the human proteins PD-1-Ig/PD-L2-His (20 & 5 nM, respectively) and CD80-His/PD-L1-Ig (100 & 10 nM, respectively).
Recombinant Proteins: Human PD-1 (25-167) with a C-terminal human Fc domain of immunoglobulin G (Ig) epitope tag [hPD-1 (25-167)-3S-IG] and human PD-L1 (18-239) with a C-terminal His epitope tag [hPD-L1(18-239)-TVMV-His] were expressed in HEK293T cells and purified sequentially by ProteinA affinity chromatography and size exclusion chromatography. Human PD-L2-His and CD80-His was obtained through commercial sources.
Table 1 lists the IC50 values for representative examples of this disclosure measured in the PD-1/PD-L1 Homogenous Time-Resolved Fluorescence (HTRF) binding assay.
Compound `CCCC[C@H]1C(=O)N(C)[C@@H](CCCC)C(=O)N[C@@H](CC(C)C)C(=O)N[C@H](C(=O)NCC(N)=O)CSCC(=O)N[C@@H](Cc2ccc(O)cc2)C(=O)N(C)[C@@H](C)C(=O)N[C@@H](CC(N)=O)C(=O)N2CCC[C@H]2C(=O)N[C@@H](CNC(=O)C(=O)Nc2ccc(F)cc2F)C(=O)N[C@@H](CC(C)C)C(=O)N2C[C@H](O)C[C@H]2C(=O)N[C@@H](Cc2c[nH]c3ccccc23)C(=O)N[C@@H](CCNC(=O)C(=O)Nc2ccc(F)cc2F)C(=O)N[C@@H](Cc2cn(CC(=O)OC)c3ccccc23)C(=O)N1C` [Compound 2010] ({CH2CO}-Y[NMeA]NP[Dap](X9)L[Hyp]W[Dab](X9)[Trp(1-CH2CO2Me)][NMeNle][NMeNle]LCG-NH2; thioether N-14) came in with an IC50 of 1.8 nM.

`CCCC[C@H]1C(=O)N(C)[C@@H](CCCC)C(=O)N[C@@H](CC(C)C)C(=O)N[C@H](C(=O)NCC(N)=O)CSCC(=O)N[C@@H](Cc2ccc(O)cc2)C(=O)N(C)[C@@H](C)C(=O)N[C@@H](CC(N)=O)C(=O)N2CCC[C@H]2C(=O)N[C@@H](CNC(=O)C(=O)OC)C(=O)N[C@@H](CC(C)C)C(=O)N2C[C@H](O)C[C@H]2C(=O)N[C@@H](Cc2c[nH]c3ccccc23)C(=O)N[C@@H](CCNC(=O)C(=O)OC)C(=O)N[C@@H](Cc2cn(CC(=O)OC)c3ccccc23)C(=O)N1C` [Compound 3001] ({CH2CO}-Y[NMeA]NP[Dap](Methoxyoxalyl)L[Hyp]W[Dab](Methoxyoxalyl)[Trp(1-CH2CO2Me)][NMeNle][NMeNle]LCG-NH2; thioether N-14) came in with an IC50 of 6.3 nM.

Take `CCCC[C@H]1C(=O)N(C)[C@@H](CCCC)C(=O)N[C@@H](CC(C)C)C(=O)N[C@H](C(=O)NCC(N)=O)CSCC(=O)N[C@@H](Cc2ccc(O)cc2)C(=O)N(C)[C@@H](C)C(=O)N[C@@H](CC(N)=O)C(=O)N2CCC[C@H]2C(=O)N[C@@H](CNC(=O)C(=O)Oc2ccccc2)C(=O)N[C@@H](CC(C)C)C(=O)N2C[C@H](O)C[C@H]2C(=O)N[C@@H](Cc2c[nH]c3ccccc23)C(=O)N[C@@H](CCNC(=O)C(=O)Oc2ccccc2)C(=O)N[C@@H](Cc2cn(CC(=O)OC)c3ccccc23)C(=O)N1C` [Compound 3003] ({CH2CO}-Y[NMeA]NP[Dap](X1)L[Hyp]W[Dab](X1)[Trp(1-CH2CO2Me)][NMeNle][NMeNle]LCG-NH2; thioether N-14): the IC50 was 0.64 nM.

As to `CCCC[C@H]1C(=O)N(C)[C@@H](CCCC)C(=O)N[C@@H](CC(C)C)C(=O)N[C@H](C(=O)NCC(N)=O)CSCC(=O)N[C@@H](Cc2ccc(O)cc2)C(=O)N(C)[C@@H](C)C(=O)N[C@@H](CC(N)=O)C(=O)N2CCC[C@H]2C(=O)N[C@@H](CNC(=O)C(=O)O)C(=O)N[C@@H](CC(C)C)C(=O)N2C[C@H](O)C[C@H]2C(=O)N[C@@H](Cc2c[nH]c3ccccc23)C(=O)N[C@@H](CCNC(=O)C(=O)O)C(=O)N[C@@H](Cc2cn(CC(=O)O)c3ccccc23)C(=O)N1C` [Compound 4001] ({CH2CO}-Y[NMeA]NP[Dap](Oxalyl)L[Hyp]W[Dab](Oxalyl)[Trp(1-CH2COOH)][NMeNle][NMeNle]LCG-NH2; thioether N-14), the IC50 was determined as 3.6 nM.

As for `CCCC[C@H]1C(=O)N(C)[C@@H](CCCC)C(=O)N[C@@H](CC(C)C)C(=O)N[C@H](C(=O)NCC(N)=O)CSCC(=O)N[C@@H](Cc2ccc(O)cc2)C(=O)N(C)[C@@H](C)C(=O)N[C@@H](CC(N)=O)C(=O)N2CCC[C@H]2C(=O)N[C@@H](CNC(=O)C(=O)O)C(=O)N[C@@H](CC(C)C)C(=O)N2C[C@H](O)C[C@H]2C(=O)N[C@@H](Cc2c[nH]c3ccccc23)C(=O)N[C@@H](CCNC(=O)C(=O)O)C(=O)N[C@@H](Cc2cn(CC(=O)OC)c3ccccc23)C(=O)N1C` [Compound 5001] ({CH2CO}-Y[NMeA]NP[Dap](Oxalyl)L[Hyp]W[Dab](Oxalyl)[Trp(1-CH2CO2Me)][NMeNle][NMeNle]LCG-NH2; thioether N-14), the IC50 was found to be 2.6 nM.

One may read the IC50 as the point on the concentration scale where inhibition reaches its midpoint. Low values mean greater potency in that assay, high ones weaker potency in that assay.
